The values that follow come from US20110124715A1, “Antiviral Oligonucleotides Having a Conserved G4 Core Sequence” (priority 1992, published 2011).

The test system of series [1] is human T-lymphoblastoid CEM cell line.
The test system of series [2] is HIV-1IIIB.
Series [3] deals with HIV-1IIIB. Kind of series: Acute HIV infection assay (XTT, CEM cells). Particulars: Table 3; for IC50: inhibition of HIV. Background: Formazan colour is commonly taken as a measure of viable cells.
Series [4] concerns human cytomegalovirus (HCMV). It is filed as cell-based.
Series [5] relates to HSV-1 (KOS). Description: HSV-1 infection ELISA assay. Type of series: cell-based, herpes simplex virus. As to conditions: Table 1; 50% inhibition of HSV replication relative to control infected cells. In general terms: ELISA stands for enzyme-linked immunosorbent assay.
For another series, the target named is gp120 (Human immunodeficiency virus type 1 group M subtype B, UniProt P03375). Particulars: read-out: dissociation constant (Kd); immobilized gp120; FIG. 16.
Series [6] relates to HIV-1. Particulars: for inhibition of binding: 5 μM oligonucleotide.
For series [7], the system named is HIV-1.
The nature of series [8]: Fraction tetramer by size exclusion chromatography. It is filed as physicochemical. Particulars: Table 16; asterisk = more than one aggregate species. On the technique in general: In gel filtration, larger molecules generally elute earlier.
In series [9] the test system is HSV-1 (KOS). Description: HSV-1 virus yield assay. Type of series: cell-based, herpes simplex virus. Set-up: dose or concentration left out as unconfirmed. Particulars: compared with Acyclovir.
Series [10] addresses T1, CD4 (Homo sapiens, UniProt P01730). Description: Immunofluorescent flow cytometry, anti-CD4 mAb on CEM-T4 cells. It is filed as cell-based.
For a further series, the target named is T2, human CD44 (Homo sapiens, UniProt P16070).
T2 construct: endogenous in cells; host or cells: HeLa cells harboring an HIV-1 env gene
Description: Immunofluorescent flow cytometry, anti-CD44 mAb. Type of series: cell-based.

A further series deals with HIV. It is filed as cell-based. Particulars: data not shown.
Series [11] relates to chronically infected (H9 IIIB) cell models. Kind of series: Chronically infected cell models. Type of series: cell-based, human immunodeficiency virus. Particulars: data not shown.
A further series has as its target V3 loop region of gp120 (Human immunodeficiency virus type 1 group M subtype B, UniProt P03375).
The target in series [12] is T1, CD4. Type of series: binding.
In another series the target is CD4/gp120 interaction (Human immunodeficiency virus type 1 group M subtype B, UniProt P03375). As to conditions: concentrations 10,000-fold above its IC50; Callahan et al.; cited from earlier work.

Several values for one entry are separate records, joined by “and”; a condition that tells them apart may be missing. Equal values may be shown once. Read-outs that look alike come from different tables or passages of the source. Strand notation (5' to 3'): a small letter for the sugar, then the base; units joined by * are phosphorothioate-linked, units joined directly phosphodiester-linked; [ ] holds rarer units or linkages, { } end groups; capitals alone tell only the bases. d = 2'-deoxy (DNA)

T2 sequence (P16070 21-361 isoform P16070-12 limits assumed): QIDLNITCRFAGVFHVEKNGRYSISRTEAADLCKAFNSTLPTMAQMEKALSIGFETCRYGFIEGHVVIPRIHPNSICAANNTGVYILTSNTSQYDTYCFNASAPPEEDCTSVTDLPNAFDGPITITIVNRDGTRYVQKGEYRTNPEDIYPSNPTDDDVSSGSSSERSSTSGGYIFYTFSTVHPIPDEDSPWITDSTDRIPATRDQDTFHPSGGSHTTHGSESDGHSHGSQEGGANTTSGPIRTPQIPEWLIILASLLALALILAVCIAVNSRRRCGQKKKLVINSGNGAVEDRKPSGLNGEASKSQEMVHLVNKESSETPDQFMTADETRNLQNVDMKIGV

In series [1], “4721 (CACGGGGTCG; phosphorothioate, further chemistry not given here) [compound 4721]” returned a TC50 of 142 µM. Further, in the series with HIV-1IIIB [2], the “TI (TC50/IC50)” value is 546.
One may read the EC50 as the concentration needed to bring the measured effect to its halfway point. In the case of “5367 (TTGGGGTTGGGGTTGGGGTTGGGGG; phosphodiester, further chemistry not given here) [compound 5367]”, the TC50 in series [1] came out at 52 µM. Moreover, in the series with HIV-1IIIB [3], the “TI (TC50/IC50)” value came out at 400; the IC50 is 90 nM and 130 nM. The substance further showed an IC50 in [4] above 2000 nM. This substance had an EC50 with HSV-1 (KOS) [5] above 4000 nM.
For “5649 (TTGGGGTTGGGGTTGGGGTTGGGG; phosphodiester, further chemistry not given here) [compound 5649]”, in the series on HIV-1IIIB [2], the “TI (TC50/IC50)” value was found to be 300. In the series with HSV-1 (KOS) [5], this substance had a half-maximal effective concentration (EC50) above 3000 nM.
For “5650 (TTGGGGTTGGGGTTGGGGTT; phosphodiester, further chemistry not given here) [compound 5650]”, in series [1], the TC50 stood at 7.6 µM. In the series on HIV-1IIIB [3], this substance displayed an IC50 of 640 nM. The “TI (TC50/IC50)” value with HIV-1IIIB [2] amounted to 12. In the series with HSV-1 (KOS) [5], this substance yielded an EC50 above 3000 nM.
For “5651 (TTGGGGTTGGGGTTGGGGTTGGGG; phosphorothioate, further chemistry not given here) [compound 5651]”, the TC50 in series [1] was 19, 19 μM. In the series with HIV-1IIIB [2], the “TI (TC50/IC50)” value was determined as 175.
Regarding “5669 (DNA GGGGTTGGGGTTGGGG; unmodified DNA) [compound 5669]”, the TC50 in [1] worked out at 9.6 µM. This substance also gave an IC50 with HIV-1IIIB [3] of 1200 nM. Besides, in the series with HIV-1IIIB [2], the “TI (TC50/IC50)” value amounted to 9.
Turning to “5675 (DNA dT*dT*dG*dG*dG*dG*dT*dT*dG*dG*dG*dG*dT*dT) [compound 5675]”, in series [1], the TC50 came to 14 µM. For the same substance, the “TI (TC50/IC50)” value in the series on HIV-1IIIB [2] worked out at 36.
As usually defined, the Kd is the constant that tells how readily two partners part at equilibrium. With T2A4T2-biotin, the equilibrium dissociation constant (Kd) at gp120 is around 260000 nM.
Regarding “TGTGTGTG [ISIS 6071, reference compound]”, the inhibition of binding result in the series on HIV-1 [6] is “showed inhibition of binding”. The IC50 entry in the series on HIV-1 [7] (Table 16, acute HIV assay) was “inactive”. Further, the “% tetramer” value in series [8] is listed as 0%.
For the substance “TT GGGG TT GGGG TT GGGG TT GGGG (TTGGGGTTGGGGTTGGGGTTGGGG; chemistry not fully specified) [ISIS 5651]”, the “antiviral activity, virus yield” value in the series on HSV-1 (KOS) [9] is given as “greater antiviral activity than did Acyclovir”.
Take TT GGGG TT [ISIS 5320]: the IC50 is around 400 nM with HIV-1 [6] (read-out: concentration reducing virus production to 50% of control, tetramer form, infection after 48 hours, data not shown); 0.3 µM in the series on HIV-1 [7] (Table 15, μM of oligonucleotide strand to inhibit 50% of virus-induced cell killing, error ±0.1 μM); 0.3 µM in the series on HIV-1 [7] (Table 16, acute HIV assay, listed as TsTsGsGsGsGsTsT). For the same substance, the “effect on binding of antibodies to CD4” value on CD4 [10] was “Neither oligonucleotide significantly decreased binding”. Moreover, the “effect on binding of antibodies to human CD44” value on human CD44 is “Neither oligonucleotide significantly decreased binding”. Besides, the “production of intracellular PCR-amplifiable DNA” value in the series on HIV is reported as “inhibited production of intracellular PCR-amplifiable DNA”. In [11], the “effect on chronically infected cells” value is on record as “had no effect”. For the same substance, the “effect on binding of antisera to gp120” value at V3 loop region of gp120 is reported as “interferes with binding of antisera directed against the V3 loop region of gp120”. Moreover, the “antiviral activity after heat denaturation of the tetrameric complex” value in the series on HIV-1 [7] (data not shown) is listed as “loss of activity”.
“TsTsGsGsGsGsTsT [TsTsGsGsGsGsTsT heat denatured]”: the inhibition of binding entry in the series with HIV-1 [6] is given as “showed inhibition of binding”. In the series with HIV-1 [7] (Table 16, acute HIV assay), the IC50 result is “inactive”. Moreover, the “% tetramer” value in series [8] turned out to be 0%.
Turning to TsTsGsGsGsGsTsTsB, in the series on HIV-1 [7] (Table 16, acute HIV assay), the IC50 worked out at 0.4 µM. The substance further yielded a Kd at CD4 [12] of around 25000 nM. For the same substance, in [8], the “% tetramer” value was determined as 85%.
Turning to dextran sulfate, on CD4/gp120 interaction, the “effect on gp120/CD4 interaction” value was “does not prevent the gp120/CD4 interaction”.
